# In publication PMC7718273 (Scientific Reports, 2020):
# Values joined by “and” are separate entries in the source; they are usually repeats but may differ in a detail not shown here. Equal values may be shown once. Read-outs that look alike come from different tables or passages of the source.
# Columns and labels:
# FAP = test: In vivo study using cynomolgus monkeys: plasma FAP activity; set-up: species or system cynomolgus monkey; settings: 50 mg/kg intranasal
# [1] = Plasma protein binding, mouse; format: in vitro ADME; settings: mouse (M), read-out: Plasma protein binding (% bound) (converted)
# recombinant human FAP = test system: T1, recombinant human FAP; test: FAP-mediated cleavage of hFGF21 in cell-free system (SDS-PAGE/immunoblot); format: biochemical; settings: hFGF21 200 nM, hFAP 50 nM, SDS-PAGE
# T1 construct: purchased R&D Systems 3715-SE
# [2] = Pharmacokinetic study in mice; format: in vivo, C57BL/6J mice; settings: mouse, plasma
# Method: Mice were administered with BR103354 either p.o. […] (2 mg/kg). […] These samples were then centrifuged at 13,000 rpm for 10 min to obtain plasma. […] Samples were analyzed on an API 4500 Qtrap LC‐MS/MS system (Applied Biosystems/MDS Sciex, Toronto, Canada) coupled with Agilent 1200 HPLC (Agilent Technologies, Santa Clara, CA). Plasma concentration–time data were analyzed by non-compartmental method using the nonlinear least-squares regression program WinNonlin (Pharsight, Mountain View, CA).
# hFAP = biological target: T2, hFAP (Homo sapiens, UniProt Q12884); test: FAP enzyme activity, fluorometric assay with AMC substrate; format: biochemical
# T2 construct: purchased R&D Systems 3715-SE
# T2 sequence (Q12884 whole entry): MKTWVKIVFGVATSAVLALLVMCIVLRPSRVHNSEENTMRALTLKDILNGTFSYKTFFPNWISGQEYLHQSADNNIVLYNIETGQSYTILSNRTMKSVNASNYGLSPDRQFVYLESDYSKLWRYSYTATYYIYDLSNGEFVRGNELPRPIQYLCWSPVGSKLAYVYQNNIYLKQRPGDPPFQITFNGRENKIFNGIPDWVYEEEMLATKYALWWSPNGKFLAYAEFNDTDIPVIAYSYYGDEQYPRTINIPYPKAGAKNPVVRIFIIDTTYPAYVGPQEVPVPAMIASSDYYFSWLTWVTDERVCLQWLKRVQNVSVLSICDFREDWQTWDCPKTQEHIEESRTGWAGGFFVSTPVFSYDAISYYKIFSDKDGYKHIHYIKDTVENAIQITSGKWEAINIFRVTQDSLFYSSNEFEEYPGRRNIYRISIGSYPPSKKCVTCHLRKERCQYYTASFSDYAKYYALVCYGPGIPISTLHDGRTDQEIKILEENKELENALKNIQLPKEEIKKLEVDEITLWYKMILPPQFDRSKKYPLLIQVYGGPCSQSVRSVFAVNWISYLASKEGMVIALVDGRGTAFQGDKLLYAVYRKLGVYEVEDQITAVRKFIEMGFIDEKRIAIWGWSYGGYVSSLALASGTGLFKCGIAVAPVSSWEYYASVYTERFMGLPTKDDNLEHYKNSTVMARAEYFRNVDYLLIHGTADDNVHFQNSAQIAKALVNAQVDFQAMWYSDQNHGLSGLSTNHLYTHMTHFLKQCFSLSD
# Method: Recombinant human PREP (hPREP) (catalog no. 4308-SE), hDPP2/7 (catalog no. 3438-SE), hDPP9 (catalog no. 5419-SE), hFAP (catalog no. 3715-SE), and hDPP4 (catalog no. 9168-SE) proteins were from R&D Systems (Minneapolis, MN). Human FGF21 (catalog no. CRF159C) was from Cell Science (Newburyport, MA).
# FAP enzyme activities were assayed in 20 mM Tris/HCl, 0.1 M NaCl, 1 mM EDTA (pH 8.0) in the presence of 40 μM Suc-Gly-Pro-Leu-Gly-Pro-AMC (#I-1350.0100, BACHEM, Bubendorf, Switzerland) and hFAP in a total volume of 100 µL. […] The inhibitor concentrations ranged from 100 μM to 0.03 nM, and its IC50 values were computed with commercially available curve-fitting programs such as the SigmaPlot. Other protease activities were determined in a similar manner.
# Kinetic solubility = format: physicochemical; settings: 22 °C, kinetic from dmso stock
# Method: Kinetic solubility was conducted as described. […] The samples were agitated for 2 h using a plate shaker (500 rpm, 22℃). Approximately 150 µL of the resulting supernatant was transferred to a 96-well analysis plate and the calibration and test samples were analyzed by HPLC with a diode array detector (Agilent 1200 HPLC) comprising a reverse-phase Kinetex XB-C18 column (2.1 × 100 mm, 2.6 µm; Phenomenex). Mobile phases were composed of 0.1% FA in water (A) and 0.1% FA in ACN (B).
# [3] = Pharmacokinetic study in monkeys; format: in vivo; settings: male, cynomolgus, cynomolgus monkey, plasma, inhaled or intranasal; for AUC(0-t): read-out: AUC(0–6 h)
# Method: Six male cynomolgus monkeys (4.5–5.5 kg) were obtained from Sichuan Primed Shines Bio-tech Co., Ltd (Chengdu, Sichuan, China) and maintained at 18–26 °C, a relative humidity of 40%-70%, a minimum of 8 air changes/h, and a 12-h light/12-h dark cycle. […] Plasma sample preparations and analysis were the same as described in mice study.
# hERG = biological target: T3, hERG (Homo sapiens, UniProt Q12809); test: hERG binding assay based on fluorescence polarization
# T3 construct: purchased Invitrogen; host or cells: membrane preparation of the kit
# T3 sequence (Q12809 whole entry): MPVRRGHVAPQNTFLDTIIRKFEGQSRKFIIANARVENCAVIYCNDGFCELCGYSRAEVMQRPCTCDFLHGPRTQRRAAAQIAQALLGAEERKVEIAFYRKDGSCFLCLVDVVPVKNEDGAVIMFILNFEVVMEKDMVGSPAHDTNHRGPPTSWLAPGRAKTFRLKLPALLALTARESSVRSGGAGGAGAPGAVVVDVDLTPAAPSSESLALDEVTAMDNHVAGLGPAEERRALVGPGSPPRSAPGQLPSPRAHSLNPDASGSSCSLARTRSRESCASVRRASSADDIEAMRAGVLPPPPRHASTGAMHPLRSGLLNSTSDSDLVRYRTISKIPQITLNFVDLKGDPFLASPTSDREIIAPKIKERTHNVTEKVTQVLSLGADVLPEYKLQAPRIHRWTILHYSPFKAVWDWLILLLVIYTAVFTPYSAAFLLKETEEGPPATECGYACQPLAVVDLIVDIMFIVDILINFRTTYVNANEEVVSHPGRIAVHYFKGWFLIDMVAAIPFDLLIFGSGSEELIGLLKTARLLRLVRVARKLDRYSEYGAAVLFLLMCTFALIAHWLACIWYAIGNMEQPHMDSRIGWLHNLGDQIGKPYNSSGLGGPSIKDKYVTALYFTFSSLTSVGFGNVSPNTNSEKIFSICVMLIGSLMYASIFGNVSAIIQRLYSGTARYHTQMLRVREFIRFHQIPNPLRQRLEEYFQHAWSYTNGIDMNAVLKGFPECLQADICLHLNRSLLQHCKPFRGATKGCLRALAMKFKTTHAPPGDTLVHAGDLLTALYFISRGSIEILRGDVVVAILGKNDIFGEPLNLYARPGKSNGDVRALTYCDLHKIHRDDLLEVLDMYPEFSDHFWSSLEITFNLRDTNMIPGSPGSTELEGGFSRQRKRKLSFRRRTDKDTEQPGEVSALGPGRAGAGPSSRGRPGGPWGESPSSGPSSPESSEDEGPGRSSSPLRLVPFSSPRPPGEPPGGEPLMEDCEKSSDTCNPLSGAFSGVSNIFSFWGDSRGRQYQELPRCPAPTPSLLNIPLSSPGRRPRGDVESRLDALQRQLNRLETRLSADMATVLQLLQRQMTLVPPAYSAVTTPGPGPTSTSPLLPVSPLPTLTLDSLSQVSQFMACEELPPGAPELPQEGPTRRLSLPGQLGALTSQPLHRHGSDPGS
# Method: Predictor hERG Assay test kits were obtained from Invitrogen (Carlsbad, CA). The binding assay was carried out according to the manufacturer’s instructions. […] Working Tracer solution (5 μL) was then added and the plate was allowed to incubate at room temperature for at least 1 h, and then fluorescence polarization was measured using the Synergy 4 Hybrid Microplate Reader from BioTek Instruments (Winooski, VT) with 530/25 excitation and 590/35 emission filters along with a 570 nm cut off dichroic mirror. Polarization values were calculated automatically using Gen Data Analysis Software (BioTek Instruments). The above protocol is described in detail in the Invitrogen’s application note.
# Plasma stability, human = format: in vitro ADME; settings: pH 7.4, read-out: Plasma stability (% remaining at 60 min)
# Method: Aliquots were then transferred in duplicate to: (i) a final concentration plate that was immediately quenched with 23.6 ng/mL internal standard (IS, chlorpropamide) in acetonitrile (ACN) or (ii) tubes, which were centrifuged for 5 min at 4℃ (14,000 rpm). The samples were subjected to LC–MS/MS analysis on an AB Sciex 4000 Q Trap hybrid triple quadrupole linear ion-trap MS (AB Sciex, Framingham, MA) coupled to an Agilent 1200 HPLC (Agilent Tech. Santa Clara, CA) with a reverse-phase Kinetex XB-C18 column (2.1 × 100 mm, 2.6 µm; Phenomenex). Mobile phases were comprised of 0.1% formic acid (FA) in water (A) and 0.1 FA in ACN (B). Data analysis was performed using […] (Ver. 1.6.1).
# [4] = male, C57BL/6J, po, p.o. 1 mg/kg
# [5] = male, C57BL/6J, po, p.o. 5 mg/kg
# [6] = male, C57BL/6J, po, p.o. 10 mg/kg
# [7] = male, C57BL/6J, po, p.o. 100 mg/kg
# [8] = male, C57BL/6J, po, p.o. 200 mg/kg
smiles,measurement,setting,value
"N#Cc1ccc(Cc2nc(C(=O)NCC(=O)N3CC(F)(F)C[C@H]3C#N)cs2)cc1 [BR103354, (S)-N-(2-(2-cyano-4,4-difluoropyrrolidin-1-yl)-2-oxoethyl)-2-(4-cyanobenzyl)thiazole-4-carboxamide]","inhibition of FAP activity, maximal","FAP; cynomolgus monkeys (n = 3), range of individual animals",65–83%
same,time of maximal effect on FAP activity and intact FGF21,"FAP; cynomolgus monkeys, 50 mg/kg",1 h and 2 h
same,fraction unbound at 1 µg/mL,[1],0.22
same,concentration from which FAP-mediated hFGF21 cleavage was inhibited,recombinant human FAP,0.4 µM
same,half-life,"[2]; male, C57BL/6J, po, mice, all doses, read-out: half-life (T1/2), range over doses",1.2 to 4 h
same,AUC(0-t),[2]; [4],3700 ng·h/mL
same,Cmax,[2]; [4],2300 ng/mL
same,Tmax,[2]; [4],0.5 h
same,half-life,"[2]; male, C57BL/6J, po, p.o. 1 mg/kg, read-out: T1/2 (converted)",1.2 h
same,AUC(0-t),[2]; [5],10800 ng·h/mL
same,Cmax,[2]; [5],7200 ng/mL
same,Tmax,[2]; [5],0.5 h
same,half-life,"[2]; male, C57BL/6J, po, p.o. 5 mg/kg, read-out: T1/2 (converted)",1.1 h
same,AUC(0-t),[2]; [6],41100 ng·h/mL
same,Cmax,[2]; [6],19200 ng/mL
same,Tmax,[2]; [6],0.5 h
same,half-life,"[2]; male, C57BL/6J, po, p.o. 10 mg/kg, read-out: T1/2 (converted)",1.2 h
same,AUC(0-t),[2]; [7],17000 ng·h/mL
same,Cmax,[2]; [7],66000 ng/mL
same,Tmax,[2]; [7],1 h
same,half-life,"[2]; male, C57BL/6J, po, p.o. 100 mg/kg, read-out: T1/2 (converted)",4 h
same,AUC(0-t),[2]; [8],29200 ng·h/mL
same,Cmax,[2]; [8],122000 ng/mL
same,Tmax,[2]; [8],1 h
same,half-life,"[2]; male, C57BL/6J, po, p.o. 200 mg/kg, read-out: T1/2 (converted)",3.8 h
same,bioavailability,"[2]; male, C57BL/6J, oral, i.v. 2 mg/kg",48.4%
same,Tmax,"[2]; summary in discussion, species and dose not stated",1 h
same,half-life,"[2]; summary in discussion, species and dose not stated, read-out: T1/2 (converted)",1.2 h
same,IC50,"hFAP; 40 μM Suc-Gly-Pro-Leu-Gly-Pro-AMC, 60 min at 37 °C, read-out: IC50 (nM) FAP",14 nM
same,IC50,"hFAP; various assays: SDS-PAGE shift, AMC-coupled substrate, serum samples from different species, read-out: IC50 values on FAP, all measurements",10 to 30 nM
same,solubility kinetic at 2 h,"Kinetic solubility; pH 3.5, aqueous buffer",81 µg/mL
same,solubility kinetic at 2 h,"Kinetic solubility; simulated gastric fluid, pH 1.0",79 µg/mL
same,solubility kinetic at 2 h,"Kinetic solubility; phosphate buffer, pH 7.4, aqueous buffer",78 µg/mL
same,Cmax,"[3]; monkey, 10 mg/kg intranasally",420 ng/mL
same,Tmax,"[3]; monkey, 10 mg/kg intranasally",2.3 h
same,AUC(0-t),"[3]; monkey, 10 mg/kg intranasally",1200 ng·h/mL
same,half-life,"[3]; monkey, 10 mg/kg intranasally, read-out: T1/2 (converted)",1.3 h
same,Cmax,"[3]; monkey, 30 mg/kg intranasally",2000 ng/mL
same,Tmax,"[3]; monkey, 30 mg/kg intranasally",2.3 h
same,AUC(0-t),"[3]; monkey, 30 mg/kg intranasally",6400 ng·h/mL
same,half-life,"[3]; monkey, 30 mg/kg intranasally, read-out: T1/2 (converted)",2.8 h
same,half-life,"[3]; monkeys, 10/30 mg/kg, read-out: half-life (T1/2), range over doses",1.3 to 2.8 h
same,Tmax,"[3]; monkeys, dose not given in the sentence (10/30 mg/kg)",2.3 h
same,IC50,hERG,> 788000 nM
same,"remaining at 1 h, 1 µM","Plasma stability, human",> 100%
